Measured values taken from patent publication US20170158702A1, “MULTIVALENT RAS BINDING COMPOUNDS” (KYRAS THERAPEUTICS, INC., priority 2015, published 2017).
pEC50: −log10 of the molar value. Counter-ions that a name gives are not always drawn.

What was measured:
NCI-H460 = experiment: Viability assay with NCI-H460 (CellTiter-Glo cytotoxicity assay, 72 h); format: cell-based; conditions: NCI-H460 cell line, 72 h after compounds addition
Experimental: (§1) NCI-H460 (Epithelial lung tissue; carcinoma; large cell lung cancer) were cultured in RPMI Medium 1640 (Invitrogen-22400105) supplemented with 10% fetal bovine serum (FBS; Invitrogen-10099141). All the cell lines were maintained in a humidified incubator at 37° C. with 5% CO2. Cell culture media and supplements were purchased from Invitrogen, and tissue culture flasks were purchased from Corning, 96-well plates were purchased from Greiner. CellTiter-Glo Luminescent Cell Viability Assay kits were purchased from Promega (Promega-G7573), cells counter Vi-Cell was purchased from Beckman, D300e digital dispenser was purchased from Tecan, detection instrument Envision was purchased from PerkinElmer.
(§2) Paclitaxel was purchased from SELLECK, test compounds, such as any one of the compounds disclosed herein, attained solubility in DMSO and when diluted into culture media. DMSO, solutions containing the test compounds, and culture media were warmed to 37° C. or room temperature for the solution preparation and dilutions.
(§3) NCI-H460 Cell line were seeded in 96-well plates (1200/well) and allowed to adhere to overnight (100 uL/well), for drug treatments with 2 fold dilution, 9 dose points, triplicates or vehicle control, compound stock solutions were prepared in DMSO and use D300e digital dispenser to add compounds to the wells to give the indicated final drug concentrations. Final DMSO concentration was 0.5%. Cellular ATP concentrations were assessed by using the CellTiter-Glo Cell Viability Assay as per the manufacturer's instructions 72 h after compounds addition. Additional cells lines were assayed with any one of the compounds disclosed herein according to the procedures described for the viability assay with NCI-H460.

MIA PaCa-2 = experiment: Viability assay with MIA PaCa-2; format: cell-based; conditions: MIA PaCa-2, viability assay per Example 57
Experimental: as §1, §2, §3
A viability assay with MIA PaCa-2 (Epithelial pancreas tissue; carcinoma) was performed with compounds listed in Table 15, according to the procedures described in Example 57.

| Compound | pEC50 (MIA PaCa-2) | pEC50 (NCI-H460) |
| --- | --- | --- |
| NC1(C(=O)NCCCn2cc(-c3ccc(OC(F)(F)F)cc3)c3cc(CN4CCCC5(CCN(Cc6c(Cl)cccc6Cl)CC5)C4)ccc32)CCNCC1 [C68; Formic acid] | ≥ 5.30 | ≥ 5.30 |
| NC1(C(=O)NCCCn2cc(-c3ccc(OC(F)(F)F)cc3)c3cc(CN4CCN(Cc5ccccc5F)CC4)ccc32)CCNCC1 [C60; Formic acid] | ≥ 5.30 | ≥ 5.30 |
| COc1ccccc1CN1CCN(Cc2ccc3c(c2)c(-c2ccc(OC(F)(F)F)cc2)cn3CCCNC(=O)C2(N)CCNCC2)CC1 [C59; Formic acid] | ≥ 5.30 | ≥ 5.30 |
| NC1(C(=O)NCCCn2cc(-c3ccc(OC(F)(F)F)cc3)c3cc(CN4CCC5(CCN(Cc6c(Cl)cccc6Cl)CC5)C4)ccc32)CCNCC1 [C61; HCl] | ≥ 5.30 | ≥ 5.30 |
| CC(C)(C)OC(=O)N1CCC(N)(C(=O)NCCCn2cc(-c3ccc(OC(F)(F)F)cc3)c3cc(CN4CCN(Cc5c(Cl)cccc5Cl)CC4)cnc32)CC1 [C175; Formic Acid] | 5.00 to 5.30 | ≥ 5.30 |
| NCCCn1cc(-c2ccccc2CN)c2cc(CN3CCN(Cc4c(Cl)cccc4Cl)CC3)ccc21 [C161; HCl] | ≥ 5.30 | ≥ 5.30 |
| NC1(C(=O)NCCCn2cc(-c3ccc(OC(F)(F)F)cc3)c3cc(CN4CC5CC4CN5Cc4c(Cl)cccc4Cl)ccc32)CCNCC1 (stereo not shown) [C77; HCl] | ≥ 5.30 | ≥ 5.30 |
| NC1(C(=O)NCCCn2cc(-c3ccc(OC(F)(F)F)cc3)c3cc(CN4CC5CCC4CN5Cc4c(Cl)cccc4Cl)ccc32)CCNCC1 (stereo not shown) [C69; HCl] | ≥ 5.30 | ≥ 5.30 |
| COc1ccc(CN2CCNC(C(=O)NCCCn3cc(-c4ccc(OC(F)(F)F)cc4)c4cc(CN5CCN(Cc6c(Cl)cccc6Cl)CC5)ccc43)C2)cc1OCc1ccc(Cl)c(Cl)c1 (stereo not shown) [C89; Formic acid] | 5.00 to 5.30 | 5.00 to 5.30 |
| NCCCn1cc(-c2ccc(OC(F)(F)F)cc2CN)c2cc(CN3CCN(Cc4ccc5c(c4)OCO5)CC3)ccc21 [C302; HCl] | ≥ 5.30 | ≥ 5.30 |
| CC(C)(C)OC(=O)NCCCc1cn(-c2ccc(OC(F)(F)F)cc2)c2cc(CN3CCN(Cc4c(Cl)cccc4Cl)CC3)ccc12 [C88; Formic acid] | < 4.52 | < 4.52 |
| NC1(C(=O)NCCCn2cc(-c3ccc(OC(F)(F)F)cc3)c3cc(CNC4C5CN(Cc6c(Cl)cccc6Cl)CC54)ccc32)CCNCC1 (stereo not shown) [C79; Formic acid] | ≥ 5.30 | ≥ 5.30 |
| NC1(C(=O)NCCCc2cn(-c3ccc(OC(F)(F)F)cc3)c3cc(C(=O)N4CCN(Cc5c(Cl)cccc5Cl)CC4)ccc23)CCNCC1 [C80; HCl] | ≥ 5.30 | ≥ 5.30 |
| O=C(NCCCn1cc(-c2ccc(OC(F)(F)F)cc2)c2cc(CN3CCN(Cc4c(Cl)cccc4Cl)CC3)ccc21)C1CNCCN1 (stereo not shown) [C90; HCl] | ≥ 5.30 | ≥ 5.30 |
| NC1(C(=O)NCCCn2cc(-c3ccc(OC(F)(F)F)cc3)c3cc(CN4CC5CN(Cc6c(Cl)cccc6Cl)CC5C4)ccc32)CCNCC1 (stereo not shown) [C70; HCl] | ≥ 5.30 | ≥ 5.30 |
| NCCCc1cn(-c2ccc(OC(F)(F)F)cc2)c2cc(CN3CCN(Cc4c(Cl)cccc4Cl)CC3)ccc12 [C87; Formic acid] | ≥ 5.30 | ≥ 5.30 |
| CC(C)(C)OC(=O)N1CCC(N)(C(=O)NCCCc2cn(-c3ccc(OC(F)(F)F)cc3)c3cc(CN4CCN(Cc5c(Cl)cccc5Cl)CC4)ccc23)CC1 [C73; Formic acid] | ≥ 5.30 | ≥ 5.30 |
| NC1(C(=O)NCCCn2cc(-c3ccc(OC(F)(F)F)cc3)c3cc(CN4CCC5(CC4)CCN(Cc4c(Cl)cccc4Cl)CC5)ccc32)CCNCC1 [C67; Formic acid] | ≥ 5.30 | ≥ 5.30 |
| NC1(C(=O)NCCCn2cc(-c3ccc(OC(F)(F)F)cc3)c3cc(CN4CCN(Cc5c(Cl)cccc5Cl)CC4)cnc32)CCNCC1 [C174; HCl] | ≥ 5.30 | ≥ 5.30 |
| COc1cccc(CN2CCC3(CC2)CCN(Cc2ccc4c(c2)c(-c2ccc(OC(F)(F)F)cc2)cn4CCCN)C3)c1 [C309; HCl] | ≥ 5.30 | ≥ 5.30 |
| NC1(C(=O)NCCCn2cc(-c3ccc(OC(F)(F)F)cc3)c3cc(CN4CCN(Cc5ccccc5OC(F)(F)F)CC4)ccc32)CCNCC1 [C58; Formic acid] | ≥ 5.30 | ≥ 5.30 |
| CN1CCN(Cc2ccc3c(c2)c(-c2ccc(OC(F)(F)F)cc2)cn3CCCNC(=O)C2(N)CCNCC2)CC1 [C57; HCl] | < 4.52 | < 4.52 |
| NC1(C(=O)NCCCn2cc(-c3ccc(OC(F)(F)F)cc3)c3cc(CN4CC5CCC(C4)N5Cc4c(Cl)cccc4Cl)ccc32)CCNCC1 [C86; Formic acid] | ≥ 5.30 | ≥ 5.30 |

Second part, led by results:

| pEC50 (MIA PaCa-2) | Compound | pEC50 (NCI-H460) |
| --- | --- | --- |
| ≥ 5.30 | NCCCn1cc(-c2ccccc2CCN)c2cc(CN3CCN(Cc4ccccc4Cl)CC3)ccc21 [C131, HCl] | ≥ 5.30 |
| ≥ 5.30 | NCC(N)C(=O)NCCCn1cc(-c2ccc(OC(F)(F)F)cc2)c2cc(CN3CCN(Cc4c(Cl)cccc4Cl)CC3)ccc21 (stereo not shown) [C81; HCl] | ≥ 5.30 |
| ≥ 5.30 | COc1cc(CN2CCC3(CC2)CCN(Cc2ccc4c(c2)c(-c2ccc(OC(F)(F)F)cc2)cn4CCCN)C3)cc(OC)c1 [C308; HCl] | ≥ 5.30 |
| ≥ 5.30 | NC1(C(=O)NCCCn2cc(-c3ccc(OC(F)(F)F)cc3)c3cc(CN4CCN(Cc5ccccc5Cl)CC4)ccc32)CCNCC1 [C62; HCl] | ≥ 5.30 |
| ≥ 5.30 | NC1(C(=O)NCCCn2cc(-c3ccc(OC(F)(F)F)cc3)c3cc(CN4CCN(Cc5ccccc5)CC4)ccc32)CCNCC1 [C72; HCl] | ≥ 5.30 |
| ≥ 5.30 | NC1(C(=O)NCCn2cc(-c3ccc(OC(F)(F)F)cc3)c3cc(CN4CCN(Cc5c(Cl)cccc5Cl)CC4)ccc32)CCNCC1 [C64; HCl] | ≥ 5.30 |
| ≥ 5.30 | NC1(C(=O)NCCCn2cc(-c3ccc(OC(F)(F)F)cc3)c3cc(CN4CC5(CCN(Cc6c(Cl)cccc6Cl)CC5)C4)ccc32)CCNCC1 [C65; HCl] | ≥ 5.30 |
| ≥ 5.30 | COc1ccc(CN2CCN(Cc3ccc4c(c3)c(-c3ccc(OC(F)(F)F)cc3CN)cn4CCCN)CC2)c(Cl)c1 [C305; HCl] | ≥ 5.30 |
| ≥ 5.30 | O=C(NCCCc1cn(-c2ccc(OC(F)(F)F)cc2)c2cc(CN3CCN(Cc4c(Cl)cccc4Cl)CC3)ccc12)C1CNCCN1 (stereo not shown) [C74; HCl] | ≥ 5.30 |
| ≥ 5.30 | NC1(C(=O)NCCCn2cc(-c3ccc(OC(F)(F)F)cc3)c3cc(CN4CCC5(CC4)CN(Cc4c(Cl)cccc4Cl)C5)ccc32)CCNCC1 [C76; HCl] | 5.00 to 5.30 |
| ≥ 5.30 | NC1(C(=O)NCCCn2cc(-c3ccc(OC(F)(F)F)cc3)c3cc(CN4CCN(Cc5ccccc5C(F)(F)F)CC4)ccc32)CCNCC1 [C63; HCl] | ≥ 5.30 |
| ≥ 5.30 | NC1(C(=O)NCCCn2cc(-c3ccc(OC(F)(F)F)cc3)c3cc(CN4CCCN(Cc5c(Cl)cccc5Cl)CC4)ccc32)CCNCC1 [C78; HCl] | ≥ 5.30 |
| ≥ 5.30 | O=C(NCCCn1cc(-c2ccc(OC(F)(F)F)cc2)c2cc(CN3CCN(Cc4c(Cl)cccc4Cl)CC3)ccc21)C1(NCc2cccnc2-c2cccc(Cl)c2)CCNCC1 [C114; HCl] | ≥ 5.30 |
| ≥ 5.30 | NCCCn1cc(-c2ccc(OC(F)(F)F)cc2CN)c2cc(CN3CCN(Cc4ccc5c(c4)OCCO5)CC3)ccc21 [C303; HCl] | ≥ 5.30 |
| ≥ 5.30 | NC1(C(=O)NCCCn2cc(-c3ccc(OC(F)(F)F)cc3)c3cc(CN4CCN(Cc5c(Cl)cccc5Cl)CC4)ccc32)CCCCC1 [C82; HCl] | ≥ 5.30 |
| ≥ 5.30 | O=C(NCCCn1cc(-c2ccc(OC(F)(F)F)cc2)c2cc(CN3CCN(Cc4c(Cl)cccc4Cl)CC3)cnc21)C1CNCCN1 (stereo not shown) [C176; HCl] | ≥ 5.30 |
| ≥ 5.30 | NC1(C(=O)NCCCn2cc(-c3ccc(OC(F)(F)F)cc3)c3cc(CN4CC5C(C4)C5NCc4c(Cl)cccc4Cl)ccc32)CCNCC1 (stereo not shown) [C85; HCl] | ≥ 5.30 |
| ≥ 5.30 | NC1(C(=O)NCCCc2cn(-c3ccc(OC(F)(F)F)cc3)c3cc(CN4CCN(Cc5c(Cl)cccc5Cl)CC4)ccc23)CCNCC1 [C75; HCl] | ≥ 5.30 |
| ≥ 5.30 | N#Cc1ccccc1CN1CCN(Cc2ccc3c(c2)c(-c2ccc(OC(F)(F)F)cc2)cn3CCCNC(=O)C2(N)CCNCC2)CC1 [C66; HCl] | ≥ 5.30 |
| ≥ 5.30 | Cc1ccccc1CN1CCN(Cc2ccc3c(c2)c(-c2ccc(OC(F)(F)F)cc2)cn3CCCNC(=O)C2(N)CCNCC2)CC1 [C71; HCl] | ≥ 5.30 |
| ≥ 5.30 | NCCCn1cc(-c2ccc(OC(F)(F)F)cc2CN)c2cc(CN3CCN(Cc4cccc5c4OCO5)CC3)ccc21 [C304; HCl] | ≥ 5.30 |
| ≥ 5.30 | NCCCn1cc(-c2ccc(OC(F)(F)F)cc2)c2cc(CN3CCN(Cc4c(Cl)cccc4Cl)CC3)cnc21 [C177; HCl] | ≥ 5.30 |
| ≥ 5.30 | COc1cccc(CN2CCN(Cc3ccc4c(c3)c(-c3ccc(OC(F)(F)F)cc3CN)cn4CCCN)CC2)c1Cl [C306; HCl] | ≥ 5.30 |
| ≥ 5.30 | COc1ccc(Cl)c(CN2CCN(Cc3ccc4c(c3)c(-c3ccc(OC(F)(F)F)cc3CN)cn4CCCN)CC2)c1 [C307; HCl] | ≥ 5.30 |
